US20180246095A1, “COMPOSITIONS AND METHODS FOR DIAGNOSING AND TREATING LYME DISEASE” (priority 2015, published 2018)

Test system: B. burgdorferi B31
Assay: RNA-Seq gene expression profile of B. burgdorferi persisters that survived antibiotic treatment, compared with drug free control
Assay type: cell-based, Borrelia burgdorferi
Settings: vs drug free control
Method: RNA Sequencing (RNA-Seq) was performed to determine the gene expression profile of B. burgdorferi persisters that survived antibiotic treatment using next generation sequencing to shed light on the mechanisms of B. burgdorferi persistence. B. burgdorferi B31 cultures were grown for 5 days to 1×10^7 spirochetes/ml in BSK-H medium followed by treatment with 50 μg/ml doxycycline or 50 μg/ml amoxicillin for 6 days. Triplicate biological samples were used for each group. The total RNA was extracted and ribosomal RNA was removed prior to preparation of cDNA libraries for Illumina sequencing. […] The RNA-Seq data was analyzed by BLAST analysis and mapped to KEGG pathways.

[1] = 50 μg/ml antibiotic for 6 days, more than two-fold change

Structure (SMILES): CC1(C)S[C@@H]2[C@H](NC(=O)[C@H](N)c3ccc(O)cc3)C(=O)N2[C@H]1C(=O)O [amoxicillin, reference compound]
- genes down-regulated in treated group (50 μg/ml antibiotic for 6 days): 174 genes
- genes upregulated in treated group (50 μg/ml antibiotic for 6 days): 342 genes
- total genes differentially expressed between tolerant persisters and drug free group (50 μg/ml antibiotic for 6 days): 516 genes

Structure (SMILES): C[C@H]1c2cccc(O)c2C(=O)C2=C(O)[C@]3(O)C(=O)C(C(N)=O)=C(O)[C@@H](N(C)C)[C@@H]3[C@@H](O)[C@@H]21 [doxycycline, reference compound]
- genes down-regulated in treated group (50 μg/ml antibiotic for 6 days): 340 genes
- genes upregulated in treated group (50 μg/ml antibiotic for 6 days): 335 genes
- total genes differentially expressed between tolerant persisters and drug free group (50 μg/ml antibiotic for 6 days): 675 genes
- down-regulated genes identified by more than two-fold change [1]: 33 genes
- up-regulated genes identified by more than two-fold change [1]: 35 genes
- clpP (BB_0757) expression, upregulated fold change in persisters (B31 culture treated with 50 μg/ml antibiotic for 6 days): 30 fold
